Data on two compounds can be found in patent US20130045991A1, “NEUROPROTECTIVE MODULATION OF NMDA RECEPTOR SUBTYPE ACTIVITIES” (THE UNIVERSITY OF BRITISH COLUMBIA, priority 2005, published 2013).

One assay concerns synaptic NMDA receptors. In words: mEPSC recording, NMDA receptor-mediated component. The format is cell-based, rat.
Assay [1] concerns cortical neurons. In words: Neuronal apoptosis with bicuculline-enhanced activation of synaptic NMDA receptors. As to conditions: bicuculline 50 μM, 4 h; for neuronal apoptosis on co-application with bicuculline: apoptosis quantified 20 h after. It counts as cell-based, rat. As for the experimental part: The function of the NR2A and NR2B synaptic receptor subpopulations in mediating neuronal survival or death is also illustrated herein, as follows. To increase activation of synaptic NMDA receptors by synaptically released glutamate, neurons were incubated with the GABAA receptor antagonist bicuculline (50 μM, 4 h). Bicuculline increases neuronal excitation by blocking the GABAA receptor-mediated synaptic inhibition and thereby enhances action potential-dependent synchronized release of glutamate from presynaptic terminals. Neuronal apoptosis was quantified 20 h following the treatments. […] The NR2A blockade-induced neuronal apoptosis was demonstrably mediated by synaptic NR2B-containing receptors, as it was prevented in the presence of Ro 25-6981 (p<0.01; FIG. 3B).
Dissociated cultures of cortical neurons were prepared from 18-day Sprague-Dawley rat embryos as described previously (Mielke et al., 2005). To obtain mixed cortical cultures enriched with neurons, uridine (10 μM) and 5-Fluor-2′-deoxyuridine (10 μM) were added to the culture medium at 3 DIV and maintained for 48 h, to inhibit non-neuronal cell proliferation, before the cultures were shifted back to the normal culture medium. Mature neurons (11-14 DIV) were used for experiments. To induce neuronal apoptosis, cortical cultures were stimulated with NMDA (50 μM) and glycine (10 μM) for 20 min, or STS (100 nM) for 1 h in Mg2+-free extracellular solution (ECS) containing (mM): 25 HEPES acid, 140 NaCl, 33 glucose, 5.4 KCl and 1.3 CaCl2, with pH 7.35 and osmolarity 320-330 mOsm. […]
(§1) To visualize injured neurons, Hoechst-33342 (10 μg/ml) was added to the culture medium 20 h after treatments and incubated for 45 min at 37 °C. Images were taken with a Leica DMIRE2 fluorescence microscope. Quantitative assessment of neuronal apoptosis was performed 20 h following treatments using a Cell Death Detection ELISAPLUS Kit (Roche Applied Science). Absorbance readings were determined using a spectrophotometric microplate reader. […] Data are expressed as the difference in apoptosis relative to control and are expressed as a percentage.

Assay [2] concerns the target T1, extrasynaptic NMDA receptors (Rattus norvegicus, UniProt Q00960).
T1 construct: both NR2A- and NR2B-containing receptor subtypes are expressed in these neurons; endogenous in cells; host or cells: primary cortical neurons from E18 Sprague-Dawley rat embryos, 11-14 DIV
In words: NMDA-induced currents mediated by extrasynaptic NMDA receptors. The format is cell-based. As to conditions: NMDA 200 μM after MK-801/bicuculline block of synaptic receptors; Ro 25-6981 0.5 μM. As for the experimental part: (§2) In contrast to the predominant expression of NR2A-containing receptors at synapses, NR2B-containing receptors are thought to be the predominant NMDA receptor expressed at extrasynaptic sites in mature neurons (Massy et al., 2004; Tovar et al., 2002). […] The selective blockade of synaptic NMDA receptors was achieved by co-application of bicuculline (50 μM) and MK-801 (10 μM) for 10 min. Bicuculline enhances synaptic release of glutamate and thereby selectively activates synaptic NMDA receptors (Hardingham et al., 2002). MK-801, as an irreversible blocker of open NMDA receptor channels (Tovar et al., 2002; Huettner et al., 1988), can only block the bicuculline-activated synaptic NMDA receptors, and cannot block extrasynaptic channels that are not activated during bicuculline application. […] Little recovery was observed one hour following wash-out of the drugs. The currents gated through extrasynaptic NMDA receptors were then induced by application of NMDA (200 μM) via a fast perfusion system after washing out bicuculline and MK-801. […] On average, about 26.6±2.3% (n=5) of total currents gated by extrasynaptic NMDA receptors were mediated by NR2A-containing receptors (FIG. 4Ad).
(§3) Recording of NMDA-induced currents mediated by extrasynaptic NMDA Receptors: Extrasynaptic NMDA receptors were isolated by a specific blockade of synaptic NMDA receptors with NMDA receptor open channel blocker MK-801 as described above. The coverslip with the treated cortical neurons was transferred to a recording chamber for whole-cell patch-clamp recording. Extrasynaptic NMDA receptors in voltage-clamped cortical neurons were activated by NMDA (200 μM) in Mg2+-free ECS using a fast perfusion system (Warner Instruments).

Assay [3] has as its system cortical neurons. Description: Apoptosis by NMDA after blockade of synaptic NMDA receptors (extrasynaptic receptors). The format is cell-based, rat. As to conditions: synaptic receptors blocked with MK-801 plus bicuculline; NMDA 50 μM plus 10 μM glycine 20 min; assayed 20 h after. As for the experimental part:
In accordance with various aspect of the invention, we have illustrated the role of extrasynaptic NR2A- and NR2B-containing receptors in mediating NMDA-induced cell survival and death. After a specific blockade of synaptic NMDA receptors and wash-out of bicuculline and MK-801, the neurons were treated with NMDA (50 μM plus 10 μM glycine) for 20 min in the absence or presence of NVP-AAM077 (0.4 μM) or Ro 25-6981 (0.5 μM). […] Thus, as with synaptic NMDA receptors, activation of extrasynaptic NR2A-containing receptors has a role in promoting cell survival, counteracting NR2B-containing receptor-mediated neuronal apoptosis. […]
as §1

Assay [4] relates to cortical neurons. Description: NMDA-mediated excitotoxicity: neuronal apoptosis in cortical cultures. As to conditions: 50 μM NMDA plus 10 μM glycine 20 min, assayed 20 h after; APV 50 μM, Ro25-6981 0.5 μM, NVP-AAM077 0.4 μM. The format is cell-based, rat. As for the experimental part:
Mature neurons (11-14 DIV) were used for experiments.
To visualize injured neurons, Hoechst-33342 (10 μg/ml) was added to the culture medium 20 h after treatments and incubated for 45 min at 37 °C. Images were taken with a Leica DMIRE2 fluorescence microscope. Quantitative assessment of neuronal apoptosis was performed 20 h following treatments using a Cell Death Detection […] Kit (Roche Applied Science). Absorbance readings were determined using a spectrophotometric microplate reader. Data analyses were carried out according to the manufacturer's instructions. Data are expressed as the difference in apoptosis relative to control and are expressed as a percentage.

Assay [5] has as its system extrasynaptic NMDA receptors. Description: NMDA-induced currents mediated by extrasynaptic NMDA receptors. The format is cell-based, rat. As to conditions: NMDA 200 μM; n=5. As for the experimental part:
as §2, §3

Molecules are shown by their SMILES.

T1 sequence (Q00960 27-1482, other chains not shown): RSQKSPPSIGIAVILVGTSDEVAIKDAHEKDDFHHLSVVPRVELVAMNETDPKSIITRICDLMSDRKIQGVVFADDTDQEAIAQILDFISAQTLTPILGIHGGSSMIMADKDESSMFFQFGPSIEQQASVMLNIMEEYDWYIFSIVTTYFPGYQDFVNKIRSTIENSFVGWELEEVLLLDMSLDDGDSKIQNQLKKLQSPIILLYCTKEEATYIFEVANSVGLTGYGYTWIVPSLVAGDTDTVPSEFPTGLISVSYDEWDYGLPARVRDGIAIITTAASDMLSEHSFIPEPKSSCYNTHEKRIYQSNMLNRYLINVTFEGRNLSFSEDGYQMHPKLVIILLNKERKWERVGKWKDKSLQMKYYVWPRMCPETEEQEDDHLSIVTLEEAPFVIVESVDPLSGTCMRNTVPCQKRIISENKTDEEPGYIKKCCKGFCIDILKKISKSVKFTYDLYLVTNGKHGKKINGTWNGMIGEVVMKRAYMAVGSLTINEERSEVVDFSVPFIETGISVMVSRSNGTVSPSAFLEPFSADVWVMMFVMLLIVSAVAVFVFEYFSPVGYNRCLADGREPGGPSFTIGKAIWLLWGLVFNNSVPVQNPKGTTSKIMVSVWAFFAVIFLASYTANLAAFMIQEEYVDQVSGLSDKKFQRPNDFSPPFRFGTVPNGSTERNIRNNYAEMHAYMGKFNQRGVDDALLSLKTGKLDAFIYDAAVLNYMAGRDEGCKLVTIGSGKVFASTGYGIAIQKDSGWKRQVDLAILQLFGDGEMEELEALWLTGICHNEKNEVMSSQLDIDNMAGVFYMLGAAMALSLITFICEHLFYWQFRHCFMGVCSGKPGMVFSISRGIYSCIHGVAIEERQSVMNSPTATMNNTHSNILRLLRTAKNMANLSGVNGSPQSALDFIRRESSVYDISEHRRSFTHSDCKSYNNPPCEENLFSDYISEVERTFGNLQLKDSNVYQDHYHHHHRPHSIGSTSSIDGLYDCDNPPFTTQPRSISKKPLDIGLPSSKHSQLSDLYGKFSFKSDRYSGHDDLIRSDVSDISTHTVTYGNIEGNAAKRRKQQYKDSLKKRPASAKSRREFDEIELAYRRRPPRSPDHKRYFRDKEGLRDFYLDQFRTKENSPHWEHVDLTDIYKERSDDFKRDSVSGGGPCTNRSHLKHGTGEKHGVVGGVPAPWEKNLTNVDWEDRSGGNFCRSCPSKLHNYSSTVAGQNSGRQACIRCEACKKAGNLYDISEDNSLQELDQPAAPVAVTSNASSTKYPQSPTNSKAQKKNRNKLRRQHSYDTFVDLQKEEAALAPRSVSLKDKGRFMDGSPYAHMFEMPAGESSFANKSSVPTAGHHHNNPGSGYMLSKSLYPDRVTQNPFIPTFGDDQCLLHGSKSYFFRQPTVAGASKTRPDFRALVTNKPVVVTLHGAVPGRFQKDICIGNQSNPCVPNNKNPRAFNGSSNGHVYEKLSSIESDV

With `C[C@@H](CN1CCC(Cc2ccccc2)CC1)[C@@H](O)c1ccc(O)cc1` (relative stereo) [Ro 25-6981, [R-(R*,S*)]-α-(4-Hydroxyphenyl)-β-methyl-4-(phenylmethyl)-1-piperidinepropanol], the “effect on slow NMDA receptor-mediated component of mEPSCs” value with synaptic NMDA receptors (-60 mV, zero added Mg2+, APV 50 μM, Ro 25-6981 0.5 μM) is “significantly reduced”. In addition, the “NR2B-containing receptor-mediated (Ro 25-6981-sensitive) component of synaptic NMDA currents” value in the assay with synaptic NMDA receptors (Ro 25-6981 0.5 μM, n=5) is given as 32.4±3.6%. For the same compound, the “effect on NR2A blockade (NVP-AAM077 + bicuculline)-induced neuronal apoptosis” value in the assay with cortical neurons [1] (plus NVP-AAM077) is recorded as “prevented”. Further, the “neuronal apoptosis on co-application with bicuculline” value in the assay on cortical neurons [1] is “did not cause apoptotic cell death”. In assay [2], the “effect on extrasynaptic NMDA receptor-mediated currents” value is given as “largely reduced”. The “effect on apoptosis elicited by NMDA via extrasynaptic NMDA receptors” value in the assay on cortical neurons [3] is “prevented”. The “effect on NMDA-induced neuronal apoptosis/damage” value in the assay with cortical neurons [4] is given as “prevented NMDA-induced neuronal apoptosis”.

Take `C[C@H](NC(c1cccc2[nH]c(=O)c(=O)[nH]c12)P(=O)(O)O)c1ccc(Br)cc1` (stereo partly drawn) [NVP-AAM077]: the “effect on the remainder (non-NR2B) of the synaptic NMDA currents” value in the assay on synaptic NMDA receptors (NVP-AAM077 0.4 μM, n=5) is reported as “largely eliminated”. Further, the “neuronal apoptosis on co-application with bicuculline” value in the assay on cortical neurons [1] is “significantly increased neuronal apoptosis”. In assay [5], the “share of total extrasynaptic NMDA receptor currents mediated by NR2A-containing receptors (Ro 25-6981-resistant, NVP-AAM077-blocked)” value was “about 26.6±2.3%”. The “effect on apoptosis elicited by NMDA via extrasynaptic NMDA receptors” value with cortical neurons [3] is “potentiated NMDA-mediated apoptosis”. Moreover, the “effect on NMDA-induced neuronal apoptosis/damage” value with cortical neurons [4] is given as “significantly enhanced”.
